Here are results for three molecules from patent US7402587B2, “Crystalline forms of a pyridinyl-sulfonamide and their use as endothelin receptor antagonists” (Speedel Pharma AG, priority 2004, dated 2008).

Holding throughout (format): physicochemical
Series [1] in a line: Light sensitivity of solutions and suspensions. The settings on record: in particular above ambient temperature.
A short description of series [2]: Thermodynamic stability of the crystalline forms (own investigations). The settings on record: compared with the other crystalline forms. From the text: Own investigations have shown that there exist two distinct crystalline forms, hereinafter referred to as form A and form B, as well as a number of further solvates, in particular the methanol, ethanol, isopropanol, dichloromethane, acetone, methyl ethyl ketone and tetrahydrofuran solvates.

Series [3] is described as follows: Hygroscopicity: water adsorption when stored under humid conditions. The settings on record: hygroscopic, water released between 50° C. and 200° C. when heated at 10° C./minute. The procedure:
Polymorph form A is a solid powder with a particle size in the range from 1 to 500 μm, preferably 5 to 300 μm, and more preferably 5 to 200 μm. The polymorph A is hygroscopic and adsorbs water to a content of about 5 percent by weight (when stored under humid conditions), which is continuously released between 50° C. and 200° C., when heated at a rate of 10° C./minute. The polymorph A is especially suitable as an intermediate and starting material to produce stable polymorph forms.

Molecules are shown by their SMILES.

With `COc1ccccc1Oc1c(NS(=O)(=O)c2ccc(C)cn2)nc(-c2ccncc2)nc1OC` [SPP301, 5-methyl-pyridine-2-sulfonic acid [6-methoxy-5-(2-methoxy-phenoxy)-2-pyridin-4-yl-pyrimidin-4-yl]-amide], in series [1], the sensitivity to light entry was “sensitive to light”.

Turning to `COc1ccccc1Oc1c(NS(=O)(=O)c2ccc(C)cn2)nc(-c2ccncc2)nc1OC` [form B, 5-methyl-pyridine-2-sulfonic acid [6-methoxy-5-(2-methoxy-phenoxy)-2-pyridin-4-yl-pyrimidin-4-yl]-amide], in series [2], the “thermodynamic stability of crystalline form” value is given as “thermodynamically stable”.

With `COc1ccccc1Oc1c(NS(=O)(=O)c2ccc(C)cn2)nc(-c2ccncc2)nc1OC` [form A, 5-methyl-pyridine-2-sulfonic acid [6-methoxy-5-(2-methoxy-phenoxy)-2-pyridin-4-yl-pyrimidin-4-yl]-amide], the “adsorbs water to a content of” value in series [3] is on record as “about 5 percent by weight”.
